The record followed here is patent US10087188B2, “Benzamide imidazopyrazine Btk inhibitors” (MERCK SHARP & DOHME CORP., priority 2014, dated 2018).

Read-outs that look alike come from different tables or passages of the source.

One experiment has as its system HeLa cells. As to the kind of experiment: [3H] Adenosine uptake assay. In kind it is cell-based. The conditions noted are these: accumulation of tritiated adenosine into HeLa cells, compound concentration range 10 μM to 0.032 nM, read-out: ADU inhibition IC50 (adenosine uptake inhibition potency). As to the method: Compounds are also screen in an adenosine uptake functional cellular assay using the protocol described below:
[^3H] Adenosine Uptake Assay Methods
Adenosine uptake activity was determined by monitoring the accumulation of tritiated adenosine into HeLa cells (ATCC catalog #CCL-2) using a PMT-based radiometric detection instrument. […] These cells were incubated overnight at 37° C. in a humidified atmosphere with 5% (v/v) CO2. After this time the growth medium was removed and replaced with 40 μL assay medium comprising: Hanks balanced salts solution (HBSS; Thermo Fisher Catalog #SH30268.01)+5% (v/v) FBS. Compound stock solutions in DMSO were diluted in assay medium to 2.5× final compound concentration maintaining a constant DMSO concentration of 0.25% (v/v). 40 μL of compound in assay medium was dispensed into individual wells of the Cytostar-T plates and the plates were incubated for 30 minutes under ambient laboratory conditions. Following this incubation, 20 μL of 500 nM[^3H] adenosine (American Radiolabeled Chemicals Inc. Catalog #ART0287) in assay medium was added and incubated for a further 60 minutes under ambient laboratory conditions. The amount of radiolabel accumulation was then determined using a Perkin Elmer Topcount NXT microplate reader. In brief, HeLa cells adhere to the bottom of the Cytostar-T plate, uptake of [^3H]adenosine into these cells brings the radiolabel into sufficient proximity to excite the scintillant in the base of the plates. These events are captured by single PMT, time-resolved coincidence counting. IC50 values were determined by 4 parameter robust fit of counts per second values vs. (Log10) compound concentrations.

Experiment [1] deals with BTK enzyme (recombinant full-length BTK, hBTK) (Homo sapiens (Human), UniProt Q06187). As to the kind of experiment: Btk enzyme activity assay, LANCE TR-FRET. In kind it is biochemical. The conditions noted are these: 50 pM hBTK, 2 μM biotin-A5-peptide, 25 μM ATP; 60 minute compound & enzyme incubation; read-out: BTK binding IC50. As to the method: Btk Enzyme Activity Assay Methods
BTK enzymatic activity was determined with the LANCE (Lanthanide Chelate Excite) TR-FRET (Time-resolved fluorescence resonance energy transfer) assay. […] After 60 minutes incubation with detection reagents, reaction plates were read on a PerkinElmer EnVision plate reader using standard TR-FRET protocol.
For orientation: Time-resolved FRET reads energy transfer from a long-lived donor to a nearby acceptor.

BTK enzyme (recombinant full-length BTK, hBTK), sequence (Q06187 whole entry): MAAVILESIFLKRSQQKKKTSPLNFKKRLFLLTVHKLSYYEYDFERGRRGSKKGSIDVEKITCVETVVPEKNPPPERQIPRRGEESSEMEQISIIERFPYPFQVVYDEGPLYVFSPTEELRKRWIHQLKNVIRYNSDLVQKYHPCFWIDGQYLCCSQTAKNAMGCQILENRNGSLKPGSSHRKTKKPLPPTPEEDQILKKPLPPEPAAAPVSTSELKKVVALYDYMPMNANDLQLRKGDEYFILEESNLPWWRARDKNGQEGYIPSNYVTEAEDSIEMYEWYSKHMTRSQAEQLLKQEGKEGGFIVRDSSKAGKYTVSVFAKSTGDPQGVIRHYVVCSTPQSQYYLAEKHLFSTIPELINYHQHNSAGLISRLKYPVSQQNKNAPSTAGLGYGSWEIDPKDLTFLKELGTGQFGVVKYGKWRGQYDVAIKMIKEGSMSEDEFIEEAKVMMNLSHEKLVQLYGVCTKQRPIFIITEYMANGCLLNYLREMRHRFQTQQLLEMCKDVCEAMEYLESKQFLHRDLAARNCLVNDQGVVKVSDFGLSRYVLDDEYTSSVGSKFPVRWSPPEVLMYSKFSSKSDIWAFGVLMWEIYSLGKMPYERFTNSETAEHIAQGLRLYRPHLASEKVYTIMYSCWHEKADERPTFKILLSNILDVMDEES

A word on the IC50: it is the concentration at which inhibition is half-maximal. Regarding `C[C@]1(C(=O)O)CC[C@H](N2CCO[C@@H](c3nc(-c4ccc(C(=O)Nc5cc(C(F)F)ccn5)cc4)c4c(N)ncc(Cl)n34)C2)CC1` (stereo in doubt) [Example 196, trans-4-{(2R)-2-[8-amino-5-chloro-1-(4-{[4-(difluoromethyl)pyridin-2-yl]carbamoyl}phenyl)imidazo [1,5-a]pyrazin-3-yl]morpholin-4-yl}-1-methylcyclohexanecarboxylic acid], the half-inhibitory concentration (IC50) in the experiment with HeLa cells was 4440 nM; in experiment [1], 7.5 nM.

In the case of `Nc1nccn2c([C@@H]3CCC[C@H](C(=O)O)C3)nc(-c3ccc(C(=O)Nc4cc(C5CC5)ccn4)cc3F)c12` [Example 9, (1S,3R)-3-(8-amino-1-{4-[(4-cyclopropyl-pyridin-2-yl)carbamoyl]-2-fluorophenyl}imidazo[1,5-a]pyrazin-3-yl)cyclohexane-carboxylic acid], the IC50 was found to be 4400 nM in the experiment on HeLa cells (Homo sapiens, HeLa) and 1.2 nM in experiment [1].

As for `Nc1nccn2c([C@@H]3CCC[C@H](C(=O)O)C3)nc(-c3ccc(C(=O)Nc4cc(C(F)(F)F)ccn4)cc3F)c12` [Example 10, (1S,3R)-3-[8-amino-1-(2-fluoro-4-{[4-(trifluoromethyl)pyridin-2-yl]carbamoyl}phenyl)imidazo [1,5-a]pyrazin-3-yl]cyclohexane-carboxylic acid], the concentration for half-maximal inhibition (IC50) in the experiment with HeLa cells (Homo sapiens, HeLa) was 10000 nM; in experiment [1] it was 0.39 nM.

For `Nc1nccn2c([C@@H]3CC[C@H](C(=O)NC4(C(=O)O)CC4)C3)nc(-c3ccc(C(=O)Nc4cc(C(F)(F)F)ccn4)cc3)c12` [Example 16, 1-[({(1S,3R)-3-[8-amino-1-(4-{[4-(trifluoromethyl)pyridin-2-yl]carbamoyl}phenyl)imidazo[1,5-a]pyrazin-3-yl]cyclopentyl}carbonyl)amino] cyclopropane-carboxylic acid], the half-maximal inhibitory concentration (IC50) in the experiment with HeLa cells (Homo sapiens, HeLa) stood at 4780 nM; in experiment [1] it was 2.1 nM.

Consider `Nc1nccn2c([C@H]3CC[C@@H](C(=O)N4CCC[C@H]4C(=O)O)C3)nc(-c3ccc(C(=O)Nc4cc(C(F)(F)F)ccn4)cc3)c12` [Example 17, 1-({(1R,3S)-3-[8-amino-1-(4-{[4-(trifluoromethyl)pyridin-2-yl]carbamoyl}phenyl)imidazo[1,5-a]pyrazin-3-yl]cyclopentyl}carbonyl)-L-proline], for which the IC50 is 10000 nM in the experiment with HeLa cells (Homo sapiens, HeLa) and 1.9 nM in experiment [1].

For the molecule `Nc1nccn2c([C@H]3CC[C@@H](C(=O)N4CCC[C@@H]4C(=O)O)C3)nc(-c3ccc(C(=O)Nc4cc(C(F)(F)F)ccn4)cc3)c12` [Example 18, 1-({(1R,3S)-3-[8-amino-1-(4-{[4-(trifluoromethyl)pyridin-2-yl]carbamoyl}phenyl)imidazo[1,5-a]pyrazin-3-yl]cyclopentyl}carbonyl)-D-proline], the IC50 with HeLa cells (Homo sapiens, HeLa) is 10000 nM; in experiment [1], 2.6 nM.

Consider `Nc1nccn2c([C@H]3CC[C@@H](C(=O)N4CC[C@@H](C(=O)O)C4)C3)nc(-c3ccc(C(=O)Nc4cc(C(F)(F)F)ccn4)cc3)c12` [Example 19, (3R)-1-({(1R,3S)-3-[8-amino-1-(4-{[4-(trifluoromethyl)pyridin-2-yl]carbamoyl}phenyl)imidazo[1,5-a]pyrazin-3-yl]cyclopentyl}carbonyl)pyrrolidine-3-carboxylic acid], for which the IC50 with HeLa cells (Homo sapiens, HeLa) amounted to 2870 nM; in experiment [1], 0.62 nM.

`CC1(C)CC(c2nc(-c3ccc(C(=O)Nc4cc(C(F)(F)F)ccn4)cc3)c3c(N)nccn23)CCC1C(=O)O` (stereo not shown) [Example 20, 4-(8-amino-1-(4-((4-(trifluoromethyl)pyridin-2-yl)carbamoyl)phenyl)imidazo[1,5-a]pyrazin-3-yl)-2,2-dimethylcyclohexanecarboxylic acid]: the IC50 in the experiment with HeLa cells (Homo sapiens, HeLa) was 5080 nM; in experiment [1], 1.5 nM.

For the molecule `CC1(C(=O)O)CCC(C)(c2nc(-c3ccc(C(=O)Nc4cc(C(F)(F)F)ccn4)cc3)c3c(N)nccn23)C1` (stereo not shown) [Example 21, 3-(8-amino-1-(4-((4-(trifluoromethyl)pyridin-2-yl)carbamoyl)phenyl)imidazo[1,5-a]pyrazin-3-yl)-1,3-dimethylcyclopentanecarboxylic acid], the half-maximal inhibitory concentration (IC50) in the experiment on HeLa cells (Homo sapiens, HeLa) was determined as 1700 nM; in experiment [1], 0.27 nM.

As to `CCOc1cc(C(=O)Nc2cc(C(F)(F)F)ccn2)ccc1-c1nc(C2(C)CCC(C)(C(=O)O)C2)n2ccnc(N)c12` (stereo not shown) [Example 22, 3-(8-amino-1-(2-ethoxy-4-((4-(trifluoromethyl)pyridin-2-yl)carbamoyl)phenyl)imidazo[1,5-a]pyrazin-3-yl)-1,3-dimethylcyclopentanecarboxylic acid], the half-inhibitory concentration (IC50) came out at 6290 nM in the experiment with HeLa cells (Homo sapiens, HeLa) and 0.66 nM in experiment [1].

For the molecule `Nc1nccn2c(-c3cccc(C(=O)O)c3)nc(-c3ccc(C(=O)Nc4cc(C(F)(F)F)ccn4)cc3)c12` [Example 23, 3-(8-amino-1-(4-((4-(trifluoromethyl)pyridin-2-yl)carbamoyl)phenyl)imidazo[1,5-a]pyrazin-3-yl)benzoic acid], the IC50 in the experiment on HeLa cells (Homo sapiens, HeLa) worked out at 10000 nM; in experiment [1], 0.56 nM.

Turning to `Nc1nccn2c(-c3ccc(F)c(C(=O)O)c3)nc(-c3ccc(C(=O)Nc4cc(C(F)(F)F)ccn4)cc3)c12` [Example 24, 5-[8-amino-1-(4-{[4-(trifluoromethyl)pyridin-2-yl]carbamoyl}phenyl)imidazo[1,5-a]pyrazin-3-yl]-2-fluorobenzoic acid], the IC50 was found to be 10000 nM in the experiment with HeLa cells (Homo sapiens, HeLa) and 1 nM in experiment [1].

On to `Nc1nccn2c(-c3ccc(C(=O)O)c(F)c3)nc(-c3ccc(C(=O)Nc4cc(C(F)(F)F)ccn4)cc3)c12` [Example 25, 4-[8-amino-1-(4-{[4-(trifluoromethyl)pyridin-2-yl]carbamoyl}phenyl)imidazo[1,5-a]pyrazin-3-yl]-2-fluorobenzoic acid], for which the IC50 in the experiment on HeLa cells (Homo sapiens, HeLa) was 6110 nM; in experiment [1], 1.7 nM.

As to `Nc1nccn2c(-c3ccc(C(=O)O)cc3)nc(-c3ccc(C(=O)Nc4cc(C(F)(F)F)ccn4)cc3)c12` [Example 26, 4-[8-amino-1-(4-{[4-(trifluoromethyl)pyridin-2-yl]carbamoyl}phenyl)imidazo[1,5-a]pyrazin-3-yl]benzoic acid], the IC50 in the experiment on HeLa cells (Homo sapiens, HeLa) was 5580 nM; in experiment [1], 0.97 nM.

With `Nc1nccn2c(-c3ccc(C(=O)O)[nH]3)nc(-c3ccc(C(=O)Nc4cc(C(F)(F)F)ccn4)cc3)c12` [Example 27, 5-[8-amino-1-(4-{[4-(trifluoromethyl)pyridin-2-yl]carbamoyl}phenyl)imidazo[1,5-a]pyrazin-3-yl]-1H-pyrrole-2-carboxylic acid], the concentration for half-maximal inhibition (IC50) in the experiment with HeLa cells (Homo sapiens, HeLa) was 10000 nM; in experiment [1] it was 2 nM.

Consider `Nc1nccn2c(-c3ccc(C(=O)O)o3)nc(-c3ccc(C(=O)Nc4cc(C(F)(F)F)ccn4)cc3)c12` [Example 28, 5-[8-amino-1-(4-{[4-(trifluoromethyl)pyridin-2-yl]carbamoyl}phenyl)imidazo[1,5-a]pyrazin-3-yl]furan-2-carboxylic acid], for which the concentration for half-maximal inhibition (IC50) in the experiment on HeLa cells (Homo sapiens, HeLa) was determined as 10000 nM; in experiment [1] it was 2.4 nM.

For `Nc1nccn2c(-c3ccc(C(=O)O)nc3)nc(-c3ccc(C(=O)Nc4cc(C(F)(F)F)ccn4)cc3)c12` [Example 29, 5-[8-amino-1-(4-{[4-(trifluoromethyl)pyridin-2-yl]carbamoyl}phenyl)imidazo[1,5-a]pyrazin-3-yl]pyridine-2-carboxylic acid], the half-maximal inhibitory concentration (IC50) came to 7500 nM in the experiment on HeLa cells (Homo sapiens, HeLa) and 11.3 nM in experiment [1].

Regarding `C[C@]1(C(=O)O)CCC[C@@H](c2nc(-c3ccc(C(=O)Nc4cc(C5CC5)ccn4)cc3)c3c(N)nccn23)C1` [Example 155, (1S,3R)-3-(8-amino-1-{4-[(4-cyclopropylpyridin-2-yl)carbamoyl]phenyl}imidazo[1,5-a]pyrazin-3-yl)-1-methylcyclohexane-carboxylic acid], the half-inhibitory concentration (IC50) in experiment [1] amounted to 2.8 nM.

In the case of `C[C@]1(C(=O)O)CCC[C@@H](c2nc(-c3ccc(C(=O)Nc4cc(C5CC5)ccn4)cc3F)c3c(N)nccn23)C1` [Example 156, (1S,3R)-3-(8-amino-1-{4-[(4-cyclopropylpyridin-2-yl)carbamoyl]-2-fluorophenyl}imidazo [1,5-a]pyrazin-3-yl)-1-methylcyclohexane-carboxylic acid], the IC50 in experiment [1] was found to be 1.7 nM.

As to `Nc1nccn2c([C@H]3CN(C(=O)C4(C(=O)O)CCC4)CCO3)nc(-c3ccc(C(=O)Nc4cc(C(F)(F)F)ccn4)cc3F)c12` [Example 178, 1-({(2R)-2-[8-amino-1-(2-fluoro-4-{[4-(trifluoromethyl)pyridin-2-yl]carbamoyl}phenyl)imidazo [1,5-a]pyrazin-3-yl]morpholin-4-yl}carbonyl)cyclobutane-carboxylic acid], in experiment [1], the IC50 was 8.6 nM.
